# Tests used:
# [1] = test system: SERT S277C/X5C; experiment: Cysteine accessibility, cytoplasmic pathway: MTSEA reactivity with S277C/X5C; type: cell-based; details: 10 μM ligand, digitonin-permeabilized cells, compared with the control
# [2] = molecular target: T1, hSERT Q562N (Homo sapiens, UniProt P31645, Q562N); experiment: APP^+ uptake, hSERT Q562N; type: cell-based; details: S2 site mutant, read-out: SYR IC50 for Transport
# T1 construct: forward and reverse primers were used to amplify a full-length hSERT; expressed in transfected cells; host or cells: HeLa
# T1 sequence (P31645 whole entry Q562N): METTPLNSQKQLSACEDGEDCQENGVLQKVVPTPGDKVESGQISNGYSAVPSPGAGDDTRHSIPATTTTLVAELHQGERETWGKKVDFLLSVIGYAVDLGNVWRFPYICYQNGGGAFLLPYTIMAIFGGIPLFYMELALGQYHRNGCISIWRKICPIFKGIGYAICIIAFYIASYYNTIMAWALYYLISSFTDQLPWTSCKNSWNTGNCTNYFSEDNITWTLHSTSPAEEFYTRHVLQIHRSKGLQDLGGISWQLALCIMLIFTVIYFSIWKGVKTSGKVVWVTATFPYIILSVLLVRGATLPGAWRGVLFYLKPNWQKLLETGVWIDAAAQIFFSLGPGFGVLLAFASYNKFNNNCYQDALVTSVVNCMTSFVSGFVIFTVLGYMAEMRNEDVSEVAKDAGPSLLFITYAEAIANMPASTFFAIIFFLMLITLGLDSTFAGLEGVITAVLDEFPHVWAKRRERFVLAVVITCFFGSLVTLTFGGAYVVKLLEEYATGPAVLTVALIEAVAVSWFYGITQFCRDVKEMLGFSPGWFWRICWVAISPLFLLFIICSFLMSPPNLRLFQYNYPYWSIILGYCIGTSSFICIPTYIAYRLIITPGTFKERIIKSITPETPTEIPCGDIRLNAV
# [3] = molecular target: T2, hSERT I327A (Homo sapiens, UniProt P31645, I327A); experiment: ASP^+ binding, hSERT I327A; details: S2 site mutant, read-out: SYR IC50 for Binding
# T2 construct: forward and reverse primers were used to amplify a full-length hSERT; expressed in transfected cells; host or cells: HeLa cells, transient, pcDNA3.1
# [4] = test system: CUMS mice; experiment: Home cage food consumption after NSFT; type: in vivo, mouse; details: mouse, in vivo
# Method: Figure 6 Animal behavioral tests. (A) Schematic illustration of animal behavioral test timeline. Mice were exposed to CUMS for 3 weeks, as described in Section 4. […] For the CUMS group, saline was given instead of drugs. NSFT was performed after 16–18 h food deprivation, followed by FST and TST. (B) NSFT. The latency time to food in NSFT was counted. (C) Home cage food consumption. Food consumed by individual mice in the home cage (g) within a 20 min period was measured after NSFT. (D) FST. The immobility time during a 2 to 6 min period in FST was measured. (E) TST. The immobility time during 2 to 6 min was counted. n = 8–10 mice/group. Bars represent the mean ± SEM. * p < 0.05 compared with the control or CUMS group, respectively, by one-way ANOVA followed by post hoc tests. ns, not significant.
# NSFT was performed after 16 h food deprivation, as described previously. The mouse was placed in an open field (24 × 40 × 14 cm), where a new chow was put in the center, and the latency time to bite food was counted over 10 min. Home cage feeding within a 20 min period was measured after the test. FST was carried out according to a protocol described previously. The mouse was placed into a beaker (Bomex, Beijing, China) with a height of 18 cm filled with water (22 ± 1 °C) for 6 min. The immobile time was measured during minutes 2–6. […] The immobile time during minutes 2–6 was measured.
# [5] = molecular target: T3, hSERT R564A (Homo sapiens, UniProt P31645, R564A); experiment: APP^+ uptake, hSERT R564A; type: cell-based; details: S2 site mutant, read-out: SYR IC50 for Transport
# T3 construct: forward and reverse primers were used to amplify a full-length hSERT; expressed in transfected cells; host or cells: HeLa
# [6] = test system: CUMS mice; experiment: Novelty suppressed feeding test (NSFT) in CUMS mice; type: in vivo, mouse
# Method: (§1) C57BL/6 adult (6–8 weeks, body weight, 18–22 g) male mice were maintained and handled in a standard condition at the Experimental Animal Center of Southern Medical University (Guangzhou, China). Animal use was approved by the Animal Use and Care Committee of Southern Medical University (approved code: SMUL2021177, approved date: 12 December 2021). The CUMS procedure was carried out according to a protocol described previously. Except for those in the control group, mice were randomly exposed to two mild unpredictable stressors per day for 3 weeks. The stressors included water deprivation, restraint, tilted cage, wet/no bedding, rotation, peppermint, noise, and inverted light off/on. Mice in the control group were group housed without any stressors throughout the procedure. […] NSFT was performed after 16 h food deprivation, as described previously. The mouse was placed in an open field (24 × 40 × 14 cm), where a new chow was put in the center, and the latency time to bite food was counted over 10 min. Home cage feeding within a 20 min period was measured after the test. FST was carried out according to a protocol described previously. The mouse was placed into a beaker (Bomex, Beijing, China) with a height of 18 cm filled with water (22 ± 1 °C) for 6 min. The immobile time was measured during minutes 2–6. TST was performed according to a previous description. The mouse was suspended from a hook that hung from a suspension bar by placing a piece of adhesive tape on its tail about 1 cm away from the tip. The immobile time during minutes 2–6 was measured.
# [7] = molecular target: T4, hSERT L565A (Homo sapiens, UniProt P31645, L565A); experiment: ASP^+ binding, hSERT L565A; details: S2 site mutant, read-out: SYR IC50 for Binding
# T4 construct: forward and reverse primers were used to amplify a full-length hSERT; expressed in transfected cells; host or cells: HeLa
# T4 sequence (P31645 whole entry L565A): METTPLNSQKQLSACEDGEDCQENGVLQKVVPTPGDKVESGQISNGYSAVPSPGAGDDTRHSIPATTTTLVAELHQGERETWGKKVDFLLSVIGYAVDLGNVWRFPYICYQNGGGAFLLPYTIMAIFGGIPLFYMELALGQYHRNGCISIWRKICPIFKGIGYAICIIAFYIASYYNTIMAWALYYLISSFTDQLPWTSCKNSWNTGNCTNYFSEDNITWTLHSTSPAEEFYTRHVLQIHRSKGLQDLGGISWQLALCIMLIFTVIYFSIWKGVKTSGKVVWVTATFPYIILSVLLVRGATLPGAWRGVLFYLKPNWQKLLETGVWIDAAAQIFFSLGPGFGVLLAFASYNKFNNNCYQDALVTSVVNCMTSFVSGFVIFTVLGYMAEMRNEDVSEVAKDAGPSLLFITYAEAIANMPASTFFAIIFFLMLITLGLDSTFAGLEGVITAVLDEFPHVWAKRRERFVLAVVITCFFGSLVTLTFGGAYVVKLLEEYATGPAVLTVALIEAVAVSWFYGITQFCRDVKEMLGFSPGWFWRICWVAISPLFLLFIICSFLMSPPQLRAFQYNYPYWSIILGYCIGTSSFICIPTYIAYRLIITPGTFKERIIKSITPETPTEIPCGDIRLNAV
# [8] = molecular target: T5, hSERT G498T (Homo sapiens, UniProt P31645, G498T); experiment: APP^+ uptake, hSERT G498T; type: cell-based; details: S2 site mutant, read-out: SYR IC50 for Transport
# T5 construct: forward and reverse primers were used to amplify a full-length hSERT; expressed in transfected cells; host or cells: HeLa cells, transient, pcDNA3.1
# [9] = molecular target: T6, hSERT T583A (Homo sapiens, UniProt P31645, T583A); experiment: APP^+ uptake, hSERT T583A; type: cell-based; details: S2 site mutant, read-out: SYR IC50 for Transport
# T6 construct: forward and reverse primers were used to amplify a full-length hSERT; expressed in transfected cells; host or cells: HeLa
# T6 sequence (P31645 whole entry T583A): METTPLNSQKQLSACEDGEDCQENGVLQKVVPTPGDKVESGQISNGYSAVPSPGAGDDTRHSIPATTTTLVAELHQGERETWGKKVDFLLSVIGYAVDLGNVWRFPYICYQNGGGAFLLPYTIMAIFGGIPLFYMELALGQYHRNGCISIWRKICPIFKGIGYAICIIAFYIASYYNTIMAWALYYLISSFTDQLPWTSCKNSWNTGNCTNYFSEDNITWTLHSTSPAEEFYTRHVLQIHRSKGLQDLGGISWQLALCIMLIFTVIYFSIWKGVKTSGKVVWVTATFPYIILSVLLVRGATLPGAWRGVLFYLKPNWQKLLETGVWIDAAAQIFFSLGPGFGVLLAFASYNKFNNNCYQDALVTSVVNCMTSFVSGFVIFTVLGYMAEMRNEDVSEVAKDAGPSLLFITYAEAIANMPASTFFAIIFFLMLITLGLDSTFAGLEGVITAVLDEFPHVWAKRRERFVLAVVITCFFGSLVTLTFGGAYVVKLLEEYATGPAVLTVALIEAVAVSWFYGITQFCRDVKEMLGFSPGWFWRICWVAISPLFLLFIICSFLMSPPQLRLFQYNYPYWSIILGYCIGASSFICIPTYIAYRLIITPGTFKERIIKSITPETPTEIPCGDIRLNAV
# [10] = test system: CUMS mice; experiment: Forced swim test (FST) in CUMS mice; type: in vivo, mouse
# Method: as §1
# [11] = molecular target: hSERT (Homo sapiens, UniProt P31645); type: cell-based; parameters: forward and reverse primers were used to amplify a full-length hSERT; expressed in transfected cells; host or cells: HeLa
# Chain of hSERT (P31645 whole entry): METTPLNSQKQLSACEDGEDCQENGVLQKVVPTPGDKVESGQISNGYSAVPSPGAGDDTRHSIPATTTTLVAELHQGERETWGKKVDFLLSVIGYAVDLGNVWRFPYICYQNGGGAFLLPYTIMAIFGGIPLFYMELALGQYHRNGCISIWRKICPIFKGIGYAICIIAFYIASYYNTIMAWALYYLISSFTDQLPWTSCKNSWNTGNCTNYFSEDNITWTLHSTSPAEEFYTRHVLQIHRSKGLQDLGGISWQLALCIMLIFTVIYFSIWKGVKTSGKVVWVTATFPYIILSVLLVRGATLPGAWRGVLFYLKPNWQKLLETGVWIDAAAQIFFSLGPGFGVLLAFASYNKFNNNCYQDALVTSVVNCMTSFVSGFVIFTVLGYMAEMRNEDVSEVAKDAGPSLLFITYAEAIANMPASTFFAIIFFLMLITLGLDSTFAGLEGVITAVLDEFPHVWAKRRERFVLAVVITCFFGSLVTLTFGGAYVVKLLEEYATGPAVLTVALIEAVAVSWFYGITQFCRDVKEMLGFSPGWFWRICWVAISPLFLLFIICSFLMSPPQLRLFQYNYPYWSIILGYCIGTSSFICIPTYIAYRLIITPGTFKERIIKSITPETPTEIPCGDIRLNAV
# [12] = molecular target: T7, hSERT WT (Homo sapiens, UniProt P31645); experiment: APP^+ uptake, hSERT WT; type: cell-based
# T7 construct: forward and reverse primers were used to amplify a full-length hSERT; expressed in transfected cells; host or cells: HeLa cells (CCL-2), transient, pcDNA3.1
# T7 sequence (P31645 whole entry): as above
# [13] = molecular target: T8, hSERT L563A (Homo sapiens, UniProt P31645, L563A); experiment: APP^+ uptake, hSERT L563A; type: cell-based; details: S2 site mutant, read-out: SYR IC50 for Transport
# T8 construct: forward and reverse primers were used to amplify a full-length hSERT; expressed in transfected cells; host or cells: HeLa
# [14] = molecular target: T4, hSERT L565A; experiment: APP^+ uptake, hSERT L565A; type: cell-based; details: S2 site mutant, read-out: SYR IC50 for Transport
# [15] = molecular target: T9, hSERT S559A (Homo sapiens, UniProt P31645, S559A); experiment: ASP^+ binding, hSERT S559A; details: S2 site mutant, read-out: SYR IC50 for Binding
# T9 construct: forward and reverse primers were used to amplify a full-length hSERT; expressed in transfected cells; host or cells: HeLa cells, transient, pcDNA3.1
# T9 sequence (P31645 whole entry S559A): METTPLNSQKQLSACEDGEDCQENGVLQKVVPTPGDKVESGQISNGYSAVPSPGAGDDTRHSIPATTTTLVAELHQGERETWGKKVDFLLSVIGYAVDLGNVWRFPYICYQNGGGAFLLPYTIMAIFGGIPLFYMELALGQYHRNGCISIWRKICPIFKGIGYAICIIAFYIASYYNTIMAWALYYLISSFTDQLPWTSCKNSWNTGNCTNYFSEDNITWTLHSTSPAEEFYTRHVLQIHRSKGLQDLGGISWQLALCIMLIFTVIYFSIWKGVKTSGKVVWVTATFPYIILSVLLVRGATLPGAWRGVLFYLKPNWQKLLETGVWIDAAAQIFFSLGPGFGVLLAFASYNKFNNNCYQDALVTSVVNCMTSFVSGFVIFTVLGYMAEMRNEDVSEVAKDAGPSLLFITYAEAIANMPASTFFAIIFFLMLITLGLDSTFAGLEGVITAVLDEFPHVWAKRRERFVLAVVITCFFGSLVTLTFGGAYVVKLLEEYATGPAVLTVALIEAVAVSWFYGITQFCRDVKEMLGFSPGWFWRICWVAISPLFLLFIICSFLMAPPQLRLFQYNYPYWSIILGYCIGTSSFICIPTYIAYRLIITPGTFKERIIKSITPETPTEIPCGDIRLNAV
# [16] = molecular target: T10, hSERT P560G (Homo sapiens, UniProt P31645, P560G); experiment: ASP^+ binding, hSERT P560G; details: S2 site mutant, read-out: SYR IC50 for Binding
# T10 construct: forward and reverse primers were used to amplify a full-length hSERT; expressed in transfected cells; host or cells: HeLa cells, transient, pcDNA3.1
# [17] = molecular target: T11, hSERT Q111N (Homo sapiens, UniProt P31645, Q111N); experiment: APP^+ uptake, hSERT Q111N; type: cell-based; details: S2 site mutant, read-out: SYR IC50 for Transport
# T11 construct: forward and reverse primers were used to amplify a full-length hSERT; expressed in transfected cells; host or cells: HeLa cells, transient, pcDNA3.1
# T11 sequence (P31645 whole entry Q111N): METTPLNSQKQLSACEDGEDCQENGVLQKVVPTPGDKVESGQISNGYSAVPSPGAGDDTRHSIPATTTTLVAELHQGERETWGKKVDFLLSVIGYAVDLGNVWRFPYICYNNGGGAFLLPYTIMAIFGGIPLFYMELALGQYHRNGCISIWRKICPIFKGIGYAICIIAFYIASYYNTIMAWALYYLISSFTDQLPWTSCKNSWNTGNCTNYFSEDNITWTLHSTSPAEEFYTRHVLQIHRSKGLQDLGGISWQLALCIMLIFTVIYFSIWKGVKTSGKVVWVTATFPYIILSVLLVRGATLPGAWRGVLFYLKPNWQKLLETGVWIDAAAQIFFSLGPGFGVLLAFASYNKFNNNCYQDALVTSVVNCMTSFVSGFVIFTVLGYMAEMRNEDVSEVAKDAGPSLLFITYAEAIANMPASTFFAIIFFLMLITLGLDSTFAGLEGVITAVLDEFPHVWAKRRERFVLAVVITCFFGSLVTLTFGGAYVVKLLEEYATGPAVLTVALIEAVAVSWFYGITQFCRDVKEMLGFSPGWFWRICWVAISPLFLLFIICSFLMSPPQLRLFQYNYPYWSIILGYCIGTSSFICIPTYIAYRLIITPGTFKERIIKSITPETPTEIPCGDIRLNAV
# [18] = molecular target: T12, hSERT P499G (Homo sapiens, UniProt P31645, P499G); experiment: ASP^+ binding, hSERT P499G; details: S2 site mutant, read-out: SYR IC50 for Binding
# T12 construct: forward and reverse primers were used to amplify a full-length hSERT; expressed in transfected cells; host or cells: HeLa cells, transient, pcDNA3.1
# T12 sequence (P31645 whole entry P499G): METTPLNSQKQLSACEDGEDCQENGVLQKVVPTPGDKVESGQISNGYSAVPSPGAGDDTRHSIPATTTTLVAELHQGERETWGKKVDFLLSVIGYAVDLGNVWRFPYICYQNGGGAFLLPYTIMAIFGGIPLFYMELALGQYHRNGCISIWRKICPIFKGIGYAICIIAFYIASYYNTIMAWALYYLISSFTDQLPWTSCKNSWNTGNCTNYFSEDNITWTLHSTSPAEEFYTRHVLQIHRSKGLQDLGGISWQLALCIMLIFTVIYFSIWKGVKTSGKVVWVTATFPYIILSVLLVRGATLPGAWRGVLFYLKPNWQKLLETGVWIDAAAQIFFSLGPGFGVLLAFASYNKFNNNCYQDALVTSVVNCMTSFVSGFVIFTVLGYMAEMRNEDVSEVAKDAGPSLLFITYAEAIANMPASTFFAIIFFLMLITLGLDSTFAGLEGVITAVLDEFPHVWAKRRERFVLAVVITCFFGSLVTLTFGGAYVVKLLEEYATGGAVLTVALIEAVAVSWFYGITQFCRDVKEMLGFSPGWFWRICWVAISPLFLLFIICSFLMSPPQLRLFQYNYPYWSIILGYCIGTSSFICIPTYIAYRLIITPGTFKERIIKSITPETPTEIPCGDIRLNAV
# [19] = 5 mg/kg, i.p., once per day day 7 to 21
compound,measurement,setting,value
"COc1cc([C@@H]2OC[C@@H]3[C@H]2CO[C@H]3c2cc(OC)c(O)c(OC)c2)cc(OC)c1O [SYR, (-)-syringaresinol]",rate constant of MTSEA reactivity with S277C/X5C,[1],decreased
same,IC50,[2],48.8 ± 4.51 µM
same,IC50,[3],53.2 ± 7.01 µM
same,home cage food consumption,[4],little effect
same,IC50,[5],14.6 ± 1.59 µM
same,reversal of behavioral abnormalities in NSFT,[6]; [19],did not exhibit a significant response
same,effect in NSFT,[6]; 10 or 20 mg/kg (i.p.),remarkable antidepressant-like effects
same,IC50,[7],21 ± 0.45 µM
same,IC50,[8],40.5 ± 0.54 µM
same,IC50,[9],8.68 ± 1.4 µM
same,reversal of behavioral abnormalities in FST,[10]; [19],did not exhibit a significant response
same,effect in FST,[10]; 10 or 20 mg/kg (i.p.),remarkable antidepressant-like effects
same,hSERT expression on the cell surface,[11],did not alter
same,IC50,"[12]; WT, APP^+ uptake, SYR added 5 min prior to APP^+, read-out: SYR IC50 for Transport",0.25 ± 0.01 µM
same,Vmax of APP^+ transport with addition of SYR,[12]; […] SYR,12.95 ± 1.52 AFU/min
same,increase of inhibitory potency compared with SAG,[12]; compared with glycoside derivative SAG,approximately 10 fold
same,mode of inhibition of APP^+ transport,"[12]; decreased Vmax, little change in Km",noncompetitive inhibitor
same,IC50,[13],6.28 ± 0.57 µM
same,IC50,[14],9.98 ± 1.22 µM
same,IC50,[15],36.8 ± 2.49 µM
same,IC50,[16],14.7 ± 0.26 µM
same,IC50,[17],17.7 ± 0.45 µM
same,IC50,[18],46.8 ± 2.35 µM
